# Entries after “also recorded” stand apart in the source; their conditions may differ. Like-named read-outs stand apart in the source and are kept apart here.
# How the values were obtained:
# Leishmania [1] = settings: methods similar to those described here; cited from earlier work
# L. major promastigotes [2] = test: Potency assessment against Leishmania major promastigotes (growth, cell counting); type: cell-based; settings: promastigotes, average of three replicates; read-out: Effective concentration (EC50) L. major
# [3] = test system: L. donovani promastigotes; test: Potency assessment against Leishmania donovani promastigotes (growth, cell counting); type: cell-based; settings: promastigotes, average of three replicates; read-out: Effective concentration (EC50) L. donovani promastigotes
# [4] = test system: L. donovani axenic amastigotes; test: Potency assessment against Leishmania donovani axenic amastigotes (growth, cell counting); type: cell-based; settings: axenic amastigotes, average of three replicates; read-out: Effective concentration (EC50) L. donovani axenic amastigotes
# T. cruzi trypomastigotes = test: T. cruzi intracellular replication in NIH/3T3 host cells (β-galactosidase, CPRG); type: cell-based, Trypanosoma cruzi
# [5] = test system: T. brucei brucei Lister 427; test: Potency assessment against T. brucei brucei Lister 427 bloodstream form (AlamarBlue, 72 h); type: cell-based, Trypanosoma brucei brucei
# T. b. rhodesiense = test: Potency assessment against T. b. rhodesiense EATRO3 bloodstream form (AlamarBlue, 72 h); type: cell-based, Trypanosoma brucei rhodesiense
# [6] = test system: T. brucei gambiense, ELIANE strain; test: Potency assessment against T. b. gambiense ELIANE bloodstream form; type: cell-based, Trypanosoma brucei gambiense
# T. b. brucei Lister 927 = test: Potency assessment against T. b. brucei Lister 927; type: cell-based, Trypanosoma brucei brucei; settings: Table 3
# Procedure: Assays were performed using the strain of T. brucei brucei Lister 427 adapted to the laboratory, and the human-infective strain T. b. rhodesiense (EATRO3 ETat1.2 TREU164 [37]). Both strains were grown and tested as bloodstream forms. To establish the EC50, cultures of Trypanosoma brucei and T. b. rhodesiense were treated with two-fold increasing concentrations of compounds (with similar DMSO increasing concentration as control). Cell populations were measured at 72 hours with an Infinite F200 microplate reader (Tecan Austria GmbH, Austria); the determination of cell viability was carried out by the established colorimetric technique AlamarBlue® with modifications, a 96-well plate format spectrophotometric assay which measures the ability of living cells to reduce resazurin [38,39]. Data obtained with T. b. brucei Lister 427 were confirmed by manual counting in a Neubauer chamber for a direct microscopic examination to rule out multinucleated phenotypes that could mask the colorimetric assays, as well as the subtraction of solvent background to dismiss a potential solvent-derived fluorescence. Pentamidine was used as drug control for potency comparison, and T. b. brucei Lister 927 strain was included in our experiments to evaluate the adaptation to medium for the different strains as a variable condition.
# [7] = test system: free T. cruzi trypomastigotes; test: T. cruzi extracellular survival of free trypomastigotes (24 h, CPRG); type: cell-based, Trypanosoma cruzi
# Procedure: T. cruzi trypomastigotes from the Tulahuen strain stably expressing the β-galactosidase gene were obtained from the supernatant of infected cultures of LLC-MK2 cells harvested between days 5 and 7. To remove amastigotes, trypomastigotes were allowed to swim out of the pellet of samples that had been centrifuged for 7 min at 2500 rpm.
# Free trypomastigotes were rinsed once and placed in 96-well plates at 100,000/well with the compounds in a final volume of 200 μl of DMEM without phenol red supplemented with 2% FBS, Pen-Strep-Glut and 100 μM CPRG. Plates were incubated for 24 h at 37° C. and absorbance was read at 590 nm.
# [8] = test system: T. brucei brucei Lister 427 bloodstream cells; test: Morphological and cell cycle alterations in T. brucei (flow cytometry); type: cell-based, Trypanosoma brucei brucei
# Procedure: Flow cytometry was used to assess cell size and DNA content, to reveal a G1 arrest and inhibition of protein synthesis or G2 arrest and multinucleated cells. […]. After permeabilization with […], saponin (0.5 mg/mL final concentration), the culture was RNAse treated for 30 minutes (10 μg/mL final concentration) and stained with 20 μg/mL propidium iodide immediately before its acquisition in a FACscan cytometer. Cells incubated with equivalent concentration of drug solvent (DMSO) were included in each experiment as control population.
# L. major promastigotes [9] = test: Cell size and DNA content analysis in Leishmania (flow cytometry); type: cell-based, Leishmania major
# Procedure: L. major log phase promastigotes were inoculated at a concentration of 10^6 cells/ml into media with compounds as indicated, and incubated overnight with varying drug concentrations to assess cell size and DNA content. For cell size, forward scatter of live promastigotes was measured by a FACS flow cytometer (Becton Dickinson), utilizing dye exclusion with 5 μg/ml propidium iodide (PI) to gate for live cells. DNA content was determined by flow cytometry using fixed and permeabilized L. major stained with PI as previously described, but reducing the incubation time with PI and RNase A from 1 hour to 30 minutes. Histogram analysis was performed using CellQuest 3.1 software (BD Bioscience).
# T. b. rhodesiense EATRO3 = test: Acute mouse infection model of T. b. rhodesiense; type: in vivo, Balb/c mice; settings: for mean survival day (MSD): once per day for four days, untreated died 6th day
# T. cruzi Y strain = test: Mouse model of T. cruzi infection (luciferase imaging); type: in vivo, Balb/c mice; settings: 30 mg/kg, 5 days, intraperitoneal
# Procedure: (§1) The targeted dosage of inhibitors was determined based on the pharmacokinetic studies disclosed by Maira, et al.. […] For L. major, 12.5 mg/kg orally was the highest tolerable dose while 30 mg/kg intraperitoneally was used for the T. cruzi infections. A lower dose was initially used in T. brucei, 5 or 10 mg/kg intraperitoneally.
# Balb/c mice were inoculated intraperitoneally with 10^5 trypomastigotes from T. cruzi Y strain expressing firefly luciferase (kindly provided by Dr. Barbara Burleigh, Harvard University). On day 7 post-infection, mice were anesthetized with ketamine/xylazine and injected with 3 mg of D-Luciferin Potassium Salt (Gold Biotechnology) at 20 mg/ml in PBS and imaged in the IVIS Lumina II (Caliper Life Sciences). […] Mice were treated for 5 days and imaged again on day 13. Data is expressed as the ratio between luciferase units in day 13 versus day 7 to determine the progression of infection with and without drug treatment.
# L. major = test: Mouse model of L. major infection (bioluminescent imaging); type: in vivo, Balb/c mice
# Procedure: as §1
# Mouse experiments were done in compliance with policies approved by the Animal Review Board at Washington University. Mice were infected with luciferase expressing L. major (LmFV1LucTK-1) and analyzed by bioluminescent imaging as described. Balb/c mice were infected with 10^5 L. major metacyclic stage parasites purified by gradient centrifugation. Luminescence was measured using an IVIS 100 instrument and analyzed with Living Image software version 2.60.
# Leishmania [10] = test: Leishmania growth inhibition summarised across both species and stages; type: cell-based; settings: range over L. major and L. donovani, promastigotes and amastigotes; read-out: inhibition of Leishmania across both species and stages
# human cells = settings: literature, Table 1; read-out: Inhibition of Cell Growth EC50; cited from earlier work
molecule,measurement,setting,value
C[C@@H]1[C@H](O)[C@@H](C)/C=C/C=C/C=C/C=C/C=C/C=C/C=C/[C@H](O[C@@H]2O[C@H](C)[C@@H](O)[C@H](N)[C@@H]2O)C[C@@H]2O[C@](O)(C[C@@H](O)C[C@@H](O)[C@H](O)CC[C@@H](O)C[C@@H](O)CC(=O)O[C@H]1C)C[C@H](O)[C@H]2C(=O)O [amphotericin B],potency of anti-leishmanial agent,Leishmania [1],30 nM
NVP-BEZ235,EC50,L. major promastigotes [2],110 ± 50 nM
same,EC50,[3],140 ± 80 nM
same,EC50,[4],70 ± 40 nM
same,amastigote lysis within host cells,"T. cruzi trypomastigotes; 350 nM, after three days, NIH-3T3 host cells",amastigotes lysis within host cells was observed
same,EC50,T. cruzi trypomastigotes; read-out: EC50 T. cruzi infection of host cell fibroblasts,120 nM
same,potency against BSF T. brucei brucei in words,[5]; Lister 427,nanomolar potency
same,EC50,"[5]; Table 3, read-out: EC50 T. b. brucei 427",16.3 ± 4.7 nM
same,EC50,"[5]; bloodstream form, cell printed in nM, read-out: Effective concentration (EC50) T. b. brucei",< 10 nM
same,EC50,"T. b. rhodesiense; Table 3, read-out: EC50 T. b. rhodesiense EATRO3",0.73 ± 0.06 nM
same,EC50,"T. b. rhodesiense; bloodstream form, cell printed in nM, read-out: Effective concentration (EC50) T. b. rhodesiense",0.73 ± 0.06 nM
same,EC50,T. b. rhodesiense; read-out: activity against EATRO3 strain of T. b. rhodesiense,0.73 nM
same,EC50,"[6]; Table 3, read-out: EC50 T. b. gambiense ELIANE",0.18 ± 0.2 nM
same,EC50,[6]; read-out: EC50 against BSF T. brucei gambiense ELIANE,0.179 nM
same,EC50,T. b. brucei Lister 927,1.7 ± 0.5 nM
same,"activity against free, non-replicating T. cruzi trypomastigotes in words",[7],inactive
same,EC50,"[7]; non-replicating, outside host cells, read-out: EC50 against free trypomastigotes",> 50000 nM
same,"effect on cellular DNA content / cell cycle, T. b. brucei",[8],appearance of zoids (anucleated cells) [59] and multinucleated cells; also recorded: reduction of G1 and G2 cells
same,"effect on cell size and DNA content, L. major promastigotes",L. major promastigotes [9],G2 growth arrest and increased promastigote size
same,mean survival day (MSD),T. b. rhodesiense EATRO3; 5 mg/kg intraperitoneal,10.8 (±2.4) days
same,mean survival day (MSD),T. b. rhodesiense EATRO3; 10 mg/kg intraperitoneal,13.4 (±3.3) days
same,parasites eliminated,"T. b. rhodesiense EATRO3; 10 mg/kg, for four days",80%
same,parasitemia,"T. b. rhodesiense EATRO3; 5 or 10 mg/kg intraperitoneal, within two days, detection limit",< 10^4 parasites/mL
same,efficacy against T. cruzi infection,T. cruzi Y strain,no efficacy
same,body weight of drug-treated mice,"L. major; 12.5 mg/kg/day oral gavage, L. major infected mice",significant weight loss; also recorded: severe weight loss
same,efficacy against L. major infection,"L. major; 12.5 mg/kg/day, 10 days, oral gavage",no efficacy; also recorded: no therapeutic effect
same,lethality at higher doses,L. major; dosing intraperitoneally at 25 mg/kg/day (higher drug doses),lethal
same,highest tolerable dose,"L. major; orally, L. major mouse model",12.5 mg/kg
same,EC50,Leishmania [10],70 to 140 nM
same,EC50,human cells,50 nM

# Reference: patent US20130296316A1, “Antiparasitic Agents Based On mTOR Inhibitors” (priority 2010, published 2013)
